The source made the active and inactive calls. The calls are words filed in the database; no cut-off is given here.
Tests used:
[1] = Acute toxicity in C57BL/6 mouse assessed as kidney damage at 1000 mg/kg, po measured for 14 days; format: organism-based; conditions: in vivo, 336 h, time 14 day
[2] = Acute toxicity in C57BL/6 mouse assessed as lung damage at 1000 mg/kg, po measured for 14 days; format: organism-based; conditions: in vivo, 336 h, time 14 day
[3] = tested on: RAW264.7; test: Anti-inflammatory activity in mouse RAW264.7 cells assessed as inhibition of LPS-induced NO production at 10 uM incubated pretreated with compound for 1 hr followed by LPS-induction and measured after 24 hrs by Griess reagent based assay relative to control; format: functional; conditions: time 25 hrs
[4] = tested on: RAW264.7; test: Anti-inflammatory activity in mouse RAW264.7 cells assessed as inhibition of LPS-induced NO production incubated pretreated with compound for 1 hr followed by LPS-induction and measured after 24 hrs by Griess reagent based assay; format: functional, cell-based
[5] = Cytotoxicity against mouse RAW264.7 cells assessed as reduction in cell viability at 20 uM incubated for 24 hrs in absence of LPS by MTT assay; format: toxicity, cell-based
[6] = tested on: RAW264.7; test: Anti-inflammatory activity against LPS-stimulated mouse RAW264.7 cells assessed as downregulation of LPS-induced iNOS expression at 0.5 to 2 uM preincubated with compound for 1 hr followed by LPS stimulation and measured after 24 hrs by Western blot analysis; format: functional, cell-based; conditions: dose 0.5-2 µM, time 25.0 hrs
[7] = tested on: RAW264.7; test: Anti-inflammatory activity against LPS-stimulated mouse RAW264.7 cells assessed as downregulation of LPS-induced COX-2 expression at 0.5 to 2 uM preincubated with compound for 1 hr followed by LPS stimulation and measured after 24 hrs by Western blot analysis; format: functional, cell-based; conditions: dose 0.5-2 µM, time 25.0 hrs
[8] = tested on: RAW264.7; test: Anti-inflammatory activity against LPS-stimulated mouse RAW264.7 cells assessed as reduction in LPS-induced iNOS level preincubated with compound for 1 hr followed by LPS stimulation and measured after 24 hrs by Western blot analysis; format: functional, cell-based; conditions: dose 0.5-2 µM, time 25.0 hrs
[9] = tested on: RAW264.7; test: Anti-inflammatory activity against LPS-stimulated mouse RAW264.7 cells assessed as reduction in LPS-induced COX-2 level preincubated with compound for 1 hr followed by LPS stimulation and measured after 24 hrs by Western blot analysis; format: functional, cell-based; conditions: dose 0.5-2 µM, time 25.0 hrs
[10] = tested on: RAW264.7; test: Anti-inflammatory activity in LPS-stimulated mouse RAW264.7 cells assessed as inhibition of p38 phosphorylation preincubated with compound for 1 hr followed by LPS stimulation and measured after 30 mins by Western blot analysis; format: functional, cell-based; conditions: dose 0.5-2 µM, time 1.5 hrs
[11] = tested on: RAW264.7; test: Anti-inflammatory activity in LPS-stimulated mouse RAW264.7 cells assessed as inhibition of JNK phosphorylation preincubated with compound for 1 hr followed by LPS stimulation and measured after 30 mins by Western blot analysis; format: functional, cell-based; conditions: dose 0.5-2 µM, time 1.5 hrs
[12] = tested on: RAW264.7; test: Anti-inflammatory activity in LPS-stimulated mouse RAW264.7 cells assessed as reduction in p38 level at 0.5 to 2 uM preincubated with compound for 1 hr followed by LPS stimulation and measured after 30 mins by Western blot analysis; format: functional, cell-based; conditions: dose 0.5-2 µM, time 1.5 hrs
[13] = tested on: RAW264.7; test: Anti-inflammatory activity in LPS-stimulated mouse RAW264.7 cells assessed as reduction in ERK level at 0.5 to 2 uM preincubated with compound for 1 hr followed by LPS stimulation and measured after 30 mins by Western blot analysis; format: functional, cell-based; conditions: dose 0.5-2 µM, time 1.5 hrs
[14] = tested on: RAW264.7; test: Anti-inflammatory activity in LPS-stimulated mouse RAW264.7 cells assessed as reduction in JNK level at 0.5 to 2 uM preincubated with compound for 1 hr followed by LPS stimulation and measured after 30 mins by Western blot analysis; format: functional, cell-based; conditions: dose 0.5-2 µM, time 1.5 hrs
[15] = Toxicity in C57BL/6 mouse assessed as body weight loss at 20 mg/kg, po measured for 7 days; format: organism-based; conditions: in vivo, 168 h, time 7 day
[16] = tested on: Mus musculus; test: Anti-inflammatory activity against DSS-induced acute colitis C57BL/6J mouse model assessed as reduction in MPO level in colon at 10 to 20 mg/kg, po measured for 7 days; format: functional, organism-based; conditions: dose 10-20 mg/kg, time 7.0 day
[17] = Toxicity in C57BL/6 mouse assessed as reduction in disease index at 20 mg/kg, po measured for 7 days; format: organism-based; conditions: in vivo, 168 h, time 7 day
[18] = tested on: Mus musculus; test: Anti-inflammatory activity against DSS-induced acute colitis C57BL/6J mouse model assessed as decrease in neutrophil infiltration in colon at 10 to 20 mg/kg, po measured for 7 days; format: functional, organism-based; conditions: dose 10-20 mg/kg, time 7.0 day
[19] = tested on: Mus musculus; test: Anti-inflammatory activity against DSS-induced acute colitis C57BL/6J mouse model assessed as decrease in goblet cells in colon at 10 to 20 mg/kg, po measured for 7 days; format: functional, organism-based; conditions: dose 10-20 mg/kg, time 7.0 day
[20] = tested on: Mus musculus; test: Anti-inflammatory activity against DSS-induced acute colitis C57BL/6J mouse model assessed as disappearance of crypt foci in colon at 10 to 20 mg/kg, po measured for 7 days; format: functional, organism-based; conditions: dose 10-20 mg/kg, time 7.0 day
[21] = tested on: Mus musculus; test: Anti-inflammatory activity against DSS-induced acute colitis C57BL/6J mouse model assessed as reduction in edema at 10 to 20 mg/kg, po measured for 7 days; format: functional, organism-based; conditions: dose 10-20 mg/kg, time 7.0 day
[22] = tested on: Mus musculus; test: Anti-inflammatory activity against DSS-induced acute colitis C57BL/6J mouse model assessed as reduction in TNF-alpha level in colon at 10 to 20 mg/kg, po measured for 7 days by ELISA analysis; format: functional, organism-based; conditions: dose 10-20 mg/kg, time 7.0 day
[23] = tested on: Mus musculus; test: Anti-inflammatory activity against DSS-induced acute colitis C57BL/6J mouse model assessed as reduction in IL-1beta level in colon at 10 to 20 mg/kg, po measured for 7 days by ELISA analysis; format: functional, organism-based; conditions: dose 10-20 mg/kg, time 7.0 day
[24] = tested on: Mus musculus; test: Anti-inflammatory activity against DSS-induced acute colitis C57BL/6J mouse model assessed as reduction in IL-6 level in colon at 10 to 20 mg/kg, po measured for 7 days by ELISA analysis; format: functional, organism-based; conditions: dose 10-20 mg/kg, time 7.0 day
[25] = Acute toxicity in male C57BL/6 mouse assessed as effect on body weight gain at 1000 to 2000 mg/kg, po measured for 14 days; format: organism-based; conditions: in vivo, 336 h, dose 1000-2000 mg/kg, time 14 day
[26] = Acute toxicity in female C57BL/6 mouse assessed as effect on body weight loss at 1000 to 2000 mg/kg, po measured for 14 days; format: organism-based; conditions: in vivo, 336 h, dose 1000-2000 mg/kg, time 14 day
[27] = Acute toxicity in male C57BL/6 mouse assessed as effect on body weight loss at 1000 to 2000 mg/kg, po measured for 14 days; format: organism-based; conditions: in vivo, 336 h, dose 1000-2000 mg/kg, time 14 day
[28] = Acute toxicity in male C57BL/6 mouse assessed as lethargy at 1000 to 2000 mg/kg, po measured for 14 days; format: organism-based; conditions: in vivo, 336 h, dose 1000-2000 mg/kg, time 14 day
[29] = Acute toxicity in female C57BL/6 mouse assessed as hyperactivity at 1000 to 2000 mg/kg, po measured for 14 days; format: organism-based; conditions: in vivo, 336 h, dose 1000-2000 mg/kg, time 14 day
[30] = Acute toxicity in male C57BL/6 mouse assessed as hyperactivity at 1000 to 2000 mg/kg, po measured for 14 days; format: organism-based; conditions: in vivo, 336 h, dose 1000-2000 mg/kg, time 14 day
[31] = Acute toxicity in female C57BL/6 mouse assessed as anorexia at 1000 to 2000 mg/kg, po measured for 14 days; format: organism-based; conditions: in vivo, 336 h, dose 1000-2000 mg/kg, time 14 day
[32] = Acute toxicity in male C57BL/6 mouse assessed as anorexia at 1000 to 2000 mg/kg, po measured for 14 days; format: organism-based; conditions: in vivo, 336 h, dose 1000-2000 mg/kg, time 14 day
[33] = Acute toxicity in male C57BL/6 mouse assessed as effect on fur laxity at 1000 to 2000 mg/kg, po measured for 14 days; format: organism-based; conditions: in vivo, 336 h, dose 1000-2000 mg/kg, time 14 day
[34] = Acute toxicity in C57BL/6 mouse assessed as spleen damage at 1000 mg/kg, po measured for 14 days; format: organism-based; conditions: in vivo, 336 h, time 14 day

## C=CCOc1ccc(/C=C/c2cc(OC)cc(OC)c2-c2cnnn2C(=O)NCCCl)cc1
[1]
  Activity: Non-Toxic
[2]
  Activity: Non-Toxic
[3]
  inhibition at 10 µM: 98%
[4]
  IC50: 600 nM
[5]
  IC50 at 24 h: > 50000 nM
[6]
  Activity: Active
[7]
  Activity: Active
[8]
  Activity: Dose-Dependent Effect
[9]
  Activity: Dose-Dependent Effect
[10]
  Activity: Dose-Dependent Effect
[11]
  Activity: Dose-Dependent Effect
[12]
  Activity: Active
[13]
  Activity: Active
[14]
  Activity: Active
[15]
  Activity: Toxic
[16]
  Activity: Active
[17]
  Activity: Non-Toxic
[18]
  Activity: Active
[19]
  Activity: Active
[20]
  Activity: Active
[21]
  Activity: Active
[22]
  Activity: Active
[23]
  Activity: Active
[24]
  Activity: Active
[25]
  Activity: Non-Toxic
[26]
  Activity: Non-Toxic
[27]
  Activity: Non-Toxic
[28]
  Activity: Non-Toxic
[29]
  Activity: Non-Toxic
[30]
  Activity: Non-Toxic
[31]
  Activity: Non-Toxic
[32]
  Activity: Non-Toxic
[33]
  Activity: Non-Toxic
[34]
  Activity: Non-Toxic
